Tests used:
Glucocorticoid receptor [1] = biological target: T1, Glucocorticoid receptor (Homo sapiens, UniProt P04150); test: Inhibitory activity against GR (glucocorticoid receptor)
T1 sequence (P04150 whole entry): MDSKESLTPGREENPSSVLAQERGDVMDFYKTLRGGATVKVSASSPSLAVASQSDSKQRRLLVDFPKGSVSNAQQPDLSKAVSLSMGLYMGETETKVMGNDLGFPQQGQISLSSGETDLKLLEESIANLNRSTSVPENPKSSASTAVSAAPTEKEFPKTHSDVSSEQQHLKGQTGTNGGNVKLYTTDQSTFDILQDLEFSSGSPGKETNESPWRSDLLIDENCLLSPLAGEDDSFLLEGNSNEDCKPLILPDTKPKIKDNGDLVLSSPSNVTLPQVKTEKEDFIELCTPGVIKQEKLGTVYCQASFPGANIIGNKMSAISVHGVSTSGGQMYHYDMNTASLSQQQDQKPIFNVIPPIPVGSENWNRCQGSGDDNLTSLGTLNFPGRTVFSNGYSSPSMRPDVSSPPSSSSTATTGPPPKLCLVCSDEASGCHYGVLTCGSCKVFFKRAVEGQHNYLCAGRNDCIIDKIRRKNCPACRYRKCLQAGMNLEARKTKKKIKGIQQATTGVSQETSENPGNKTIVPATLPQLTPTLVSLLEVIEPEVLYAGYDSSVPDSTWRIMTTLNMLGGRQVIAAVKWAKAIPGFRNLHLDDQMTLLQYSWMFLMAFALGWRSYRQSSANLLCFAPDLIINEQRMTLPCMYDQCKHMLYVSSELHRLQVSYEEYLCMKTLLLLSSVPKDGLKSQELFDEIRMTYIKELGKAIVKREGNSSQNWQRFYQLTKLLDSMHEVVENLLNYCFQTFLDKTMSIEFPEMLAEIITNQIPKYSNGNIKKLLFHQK

Progesterone receptor [2] = biological target: T2, Progesterone receptor (Homo sapiens, UniProt P06401); test: Inhibition of [3H]P4 to progesterone receptor (PR) of human T47D breast carcinoma cells; format: cell-based
T2 sequence (P06401 whole entry): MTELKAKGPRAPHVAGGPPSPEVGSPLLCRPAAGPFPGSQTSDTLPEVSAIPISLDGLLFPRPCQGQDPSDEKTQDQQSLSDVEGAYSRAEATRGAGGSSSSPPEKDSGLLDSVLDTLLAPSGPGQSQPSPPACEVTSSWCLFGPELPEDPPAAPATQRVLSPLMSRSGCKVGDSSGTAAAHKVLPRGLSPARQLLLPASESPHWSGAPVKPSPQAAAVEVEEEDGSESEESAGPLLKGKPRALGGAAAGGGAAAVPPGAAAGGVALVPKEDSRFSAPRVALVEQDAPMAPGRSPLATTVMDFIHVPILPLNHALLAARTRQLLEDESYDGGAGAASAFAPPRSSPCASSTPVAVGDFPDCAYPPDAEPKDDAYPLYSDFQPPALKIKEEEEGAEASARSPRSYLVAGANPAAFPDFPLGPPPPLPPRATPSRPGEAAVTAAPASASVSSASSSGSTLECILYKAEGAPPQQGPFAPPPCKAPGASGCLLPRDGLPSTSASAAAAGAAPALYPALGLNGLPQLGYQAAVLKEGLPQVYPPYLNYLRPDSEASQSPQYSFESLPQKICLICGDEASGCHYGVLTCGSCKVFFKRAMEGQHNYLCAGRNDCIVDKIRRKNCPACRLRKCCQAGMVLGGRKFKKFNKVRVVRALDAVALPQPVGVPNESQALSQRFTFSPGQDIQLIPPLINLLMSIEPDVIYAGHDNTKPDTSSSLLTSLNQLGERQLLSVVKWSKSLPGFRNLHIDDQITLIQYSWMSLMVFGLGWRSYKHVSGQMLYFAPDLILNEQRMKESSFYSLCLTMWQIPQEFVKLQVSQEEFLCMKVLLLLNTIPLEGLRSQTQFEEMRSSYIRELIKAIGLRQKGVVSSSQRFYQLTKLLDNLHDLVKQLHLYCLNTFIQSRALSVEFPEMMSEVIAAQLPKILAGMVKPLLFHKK

Androgen receptor [3] = biological target: T3, Androgen receptor (Mus musculus, UniProt P19091); test: Inhibitory activity against Androgen receptor
T3 sequence (P19091 whole entry): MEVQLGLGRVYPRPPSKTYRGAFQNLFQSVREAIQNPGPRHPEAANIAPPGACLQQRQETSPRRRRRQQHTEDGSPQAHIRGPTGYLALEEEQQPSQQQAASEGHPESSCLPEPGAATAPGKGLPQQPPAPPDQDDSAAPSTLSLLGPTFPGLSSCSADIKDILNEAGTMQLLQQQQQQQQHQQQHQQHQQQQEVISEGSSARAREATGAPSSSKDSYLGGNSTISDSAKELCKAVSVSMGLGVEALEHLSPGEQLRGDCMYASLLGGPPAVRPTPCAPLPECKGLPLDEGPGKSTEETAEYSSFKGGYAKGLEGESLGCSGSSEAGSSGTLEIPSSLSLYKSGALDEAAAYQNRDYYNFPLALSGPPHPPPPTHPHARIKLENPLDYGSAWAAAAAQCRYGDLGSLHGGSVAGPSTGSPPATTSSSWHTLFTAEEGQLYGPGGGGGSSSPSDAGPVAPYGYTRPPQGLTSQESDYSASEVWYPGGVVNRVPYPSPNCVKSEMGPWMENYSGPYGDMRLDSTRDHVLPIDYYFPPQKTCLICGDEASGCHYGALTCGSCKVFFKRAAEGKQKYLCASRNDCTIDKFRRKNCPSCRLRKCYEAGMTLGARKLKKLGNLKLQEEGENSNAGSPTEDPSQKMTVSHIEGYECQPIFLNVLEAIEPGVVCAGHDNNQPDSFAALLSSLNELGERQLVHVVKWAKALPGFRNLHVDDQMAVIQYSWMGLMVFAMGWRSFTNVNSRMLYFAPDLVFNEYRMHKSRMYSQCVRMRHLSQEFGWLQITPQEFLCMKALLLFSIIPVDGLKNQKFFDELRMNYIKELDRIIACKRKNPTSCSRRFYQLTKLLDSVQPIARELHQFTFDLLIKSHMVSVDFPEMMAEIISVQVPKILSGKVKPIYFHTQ

Progesterone receptor [4] = biological target: T2, Progesterone receptor; test: Effective concentration on alkaline phosphatase activity in human T47D breast carcinoma cell line.; format: functional, cell-based
Glucocorticoid receptor [5] = biological target: T1, Glucocorticoid receptor; test: Effective concentration against GR (glucocorticoid receptor)
Androgen receptor [6] = biological target: T3, Androgen receptor; test: Effective concentration against Androgen receptor
Progesterone receptor [7] = biological target: T2, Progesterone receptor; test: Effective concentration against PR (progesterone receptor)

- IC50 (Glucocorticoid receptor [1]): 1.32 µM
- IC50 (Progesterone receptor [2]): 0.003 µM
- IC50 (Androgen receptor [3]): 0.379 µM
- EC50 (Progesterone receptor [4]): 0.0004 µM
- EC50 (Glucocorticoid receptor [5]): > 10 µM
- EC50 (Androgen receptor [6]): > 10 µM
- EC50 (Progesterone receptor [7]): 0.00038 µM
SMILES: CC1(C)OC(=S)Nc2ccc(-c3csc(C#N)c3)cc21

— ChEMBL document CHEMBL1136686 (Bioorg Med Chem Lett, 2003)
